Assay results reported in ChEMBL document CHEMBL4390677, “Topographical Mapping of Isoform-Selectivity Determinants for J-Channel-Binding Inhibitors of Sphingosine Kinases 1 and 2” (J Med Chem, 2019).

Columns and labels:
Sphingosine kinase 2 [1] = biological target: T1, Sphingosine kinase 2 (Homo sapiens, UniProt Q9NRA0); experiment: Inhibition of recombinant human full-length N-terminal His-tagged SK2 expressed in baculovirus infected Sf9 insect cells using Sph as substrate measured after 30 mins in presence of [gamma32P]ATP by Cerenkov counting analysis
T1 sequence (Q9NRA0 whole entry): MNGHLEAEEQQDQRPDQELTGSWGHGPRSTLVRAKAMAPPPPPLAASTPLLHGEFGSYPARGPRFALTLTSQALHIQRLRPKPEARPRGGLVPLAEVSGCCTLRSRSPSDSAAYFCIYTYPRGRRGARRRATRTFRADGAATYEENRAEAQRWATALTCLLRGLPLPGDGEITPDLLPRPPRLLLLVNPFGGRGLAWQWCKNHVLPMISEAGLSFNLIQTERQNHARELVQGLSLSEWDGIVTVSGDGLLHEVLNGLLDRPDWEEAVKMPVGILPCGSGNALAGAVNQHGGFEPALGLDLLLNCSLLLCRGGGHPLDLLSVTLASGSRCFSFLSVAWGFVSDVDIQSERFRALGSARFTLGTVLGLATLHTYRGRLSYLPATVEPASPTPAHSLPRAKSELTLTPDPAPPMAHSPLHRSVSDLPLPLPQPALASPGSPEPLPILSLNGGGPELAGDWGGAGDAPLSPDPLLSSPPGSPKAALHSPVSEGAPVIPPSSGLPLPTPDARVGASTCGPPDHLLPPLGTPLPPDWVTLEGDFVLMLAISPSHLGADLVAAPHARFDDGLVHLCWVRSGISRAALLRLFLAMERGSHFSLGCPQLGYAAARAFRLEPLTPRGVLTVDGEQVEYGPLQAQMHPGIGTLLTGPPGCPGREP

Sphingosine kinase 1 = Sphingosine kinase 1 (Homo sapiens, UniProt Q9NYA1); experiment: Inhibition of GFP-tagged SK1 (unknown origin) expressed in HEK293 cells using Sph as substrate measured after 30 mins in presence of [gamma32P]ATP by Cerenkov counting analysis; assay type: cell-based
Sequence of Sphingosine kinase 1 (Q9NYA1 whole entry): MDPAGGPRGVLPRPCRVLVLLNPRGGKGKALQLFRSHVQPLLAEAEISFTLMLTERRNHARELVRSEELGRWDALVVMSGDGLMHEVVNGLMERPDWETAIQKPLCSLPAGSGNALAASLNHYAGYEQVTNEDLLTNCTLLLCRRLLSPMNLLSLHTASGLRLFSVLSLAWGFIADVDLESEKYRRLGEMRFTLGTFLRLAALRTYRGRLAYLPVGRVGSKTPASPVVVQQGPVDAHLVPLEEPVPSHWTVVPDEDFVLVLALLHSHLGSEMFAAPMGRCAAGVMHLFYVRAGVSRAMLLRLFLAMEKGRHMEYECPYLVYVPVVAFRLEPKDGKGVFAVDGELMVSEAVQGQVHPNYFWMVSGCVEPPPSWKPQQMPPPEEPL

Homo sapiens = organism: Homo sapiens; experiment: Selectivity index, ratio of IC50 for GFP-tagged SK1 (unknown origin) expressed in HEK293 cells to IC50 for purified SK2 (unknown origin)
Sphingosine kinase 2 [2] = biological target: T1, Sphingosine kinase 2; experiment: Inhibition of SK2 (unknown origin)
[3] = biological target: T2, Sphingosine kinase 2 (Homo sapiens) (UniProt Q9NRA0); experiment: Inhibition of recombinant human full-length N-terminal His-tagged SK2 expressed in baculovirus infected Sf9 insect cells at 3 uM using Sph as substrate measured after 30 mins in presence of [gamma32P]ATP by Cerenkov counting analysis relative to control
T2 sequence (whole entry): T1 sequence (Q9NRA0 whole entry)

| Structure (SMILES) | IC50 (Sphingosine kinase 2 [1]) [nM] | IC50 (Sphingosine kinase 1) [nM] | Ratio IC50 (Homo sapiens) | Ki (Sphingosine kinase 2 [2]) [nM] | inhibition [3] [%] |
| --- | --- | --- | --- | --- | --- |
| OC[C@H]1CCCN1Cc1ccc(COc2cccc(OCc3ccc(F)cc3)c2)cc1 | 49 | 170 | 3.5 | – | – |
| OC[C@H]1CCCN1Cc1ccc(COc2cccc(OCc3cccc(F)c3)c2)cc1 | 143 | 9 | 0.063 | – | – |
| OC[C@H]1CCCN1Cc1ccc(COc2cccc(SCc3ccc(F)cc3)c2)cc1 | 17 | 765 | 45 | – | – |
| OC[C@H]1CCCN1Cc1ccc(COc2cccc(OCc3ccc(Cl)cc3)c2)cc1 | 41 | 4130 | 101 | – | – |
| OC[C@H]1CCCN1Cc1ccc(COc2cccc(OCc3ccccc3F)c2)cc1 | 55 | 41 | 0.75 | – | – |
| OC[C@H]1CCCN1Cc1ccc(COc2cccc(OCc3ccccc3Cl)c2)cc1 | 151 | 39 | 0.26 | – | – |
| Oc1ccc(Nc2nc(-c3ccc(Cl)cc3)cs2)cc1 | – | – | – | 6700 | – |
| N#Cc1ccc(COc2cccc(OCc3ccc(CN4CCC[C@@H]4CO)cc3)c2)cc1 | 1120 | > 3000 | > 2.7 | – | – |
| OC[C@H]1CCCN1Cc1ccc(COc2cccc(OCc3ccccc3)c2)cc1 | 16 | 14 | 0.88 | – | – |
| O=S(=O)(Oc1cccc(OCc2ccc(CN3CCC[C@@H]3CO)cc2)c1)c1ccccc1 | 902 | 11 | 0.012 | – | – |
| OC[C@H]1CCCN1Cc1ccc(COc2cccc(SCc3ccc(Cl)cc3)c2)cc1 | 31 | 2360 | 76 | – | – |
| OC[C@H]1CCCN1Cc1ccc(COc2cccc(OCc3cccc(Cl)c3)c2)cc1 | 412 | 44 | 0.11 | – | – |
| O=S(=O)(Cc1cccc(OCc2ccc(CN3CCC[C@@H]3CO)cc2)c1)c1ccccc1 | – | 144 | < 0.048 | – | 16 |
| OC[C@H]1CCCN1Cc1ccc(COc2cccc(CCc3ccccc3)c2)cc1 | 35 | 26 | 0.74 | – | – |
| OC[C@H]1CCCN1Cc1ccc(COc2cccc(SCc3ccccc3)c2)cc1 | 26 | 137 | 5.3 | – | – |
| COc1ccc(COc2cccc(OCc3ccc(CN4CCC[C@@H]4CO)cc3)c2)cc1 | 119 | > 3000 | > 25 | – | – |
